Legend:
Assay in all cases: Comparative tests by the post-emergence method
Type in all cases: in vivo
[1] = test system: Abutilon theophrasti
Protocol: (§1) Seeds of monocotyledonous and dicotyledonous weed and crop plants are placed in sandy loam in wood-fiber pots, covered with soil and cultivated in a greenhouse under good growth conditions. 2 to 3 weeks after sowing, the test plants are treated at the one-leaf stage. The inventive compounds formulated in the form of wettable powders (WP) or as emulsion concentrates (EC) are then sprayed onto the green parts of the plants as an aqueous suspension or emulsion at a water application rate of 600 to 800 I/ha (converted) with addition of 0.2% wetting agent. After the test plants have been left to stand in the greenhouse under optimal growth conditions for about 3 weeks, the action of the formulations is assessed visually in comparison to untreated controls (herbicidal action in percent (%): 100% activity=the plants have died, 0% activity=like control plants). Here, the compounds Nos. 1-02, 1-03, 1-05, 1-06, 1-14, 1-15, 2-01, 2-02, 2-03, 2-04, 2-05, 2-06, 2-16, 2-17, 2-18, 2-19, 2-20, 2-21, 2-22, 2-23, 2-24, 2-25, 2-26, 2-27, 2-28, 2-29, 2-30, 2-31, 2-33, 2-34, 2-35, 2-39, 2-40, 2-41, 2-43, 2-44, 2-45, 2-46, 2-47, 2-48, 2-49, 2-50, 2-51, 2-52, 2-53, 2-60, 2-61, 2-62, 2-63, 2-64, 2-65, 2-69 and 2-83 each show, at an application rate of 80 g/ha, an activity of at least 80% against Abutilon theophrasti and Veronica persica. The compounds Nos. 1-14, 2-32, 2-42, 2-66, 2-67, 2-69 and 2-83, at an application rate of 80 g/ha, each show an activity of at least 80% against Amaranthus retroflexus and Stellaria media.
(§2) For comparative tests, the compound No. 1-15 according to the invention and the compounds No. 118 and No. 119 known from EP 0 049 071 A1 were tested by the post-emergence method at various dosages against a number of harmful plants.
(§3) ABUTH Abutilon theophrasti PHBPU Pharbitis purpureum

[2] = test system: Pharbitis purpureum
Protocol: as §1, §2, §3

[3] = test system: Veronica persica
Protocol: as §1, §2

Q: Which “Herbicidal action against ABUTH” value ([1]; dosage 5 g/ha) does the source give for `Cc1cc(C(=O)Nc2ncnn2C)c(Cl)cc1S(C)(=O)=O` [No. 1-15] here?
A: The value was 90%.

Q: What about the “Herbicidal action against ABUTH” value ([1]; dosage 20 g/ha) of the same molecule?
A: Its value is 90%.

Q: What about the “Herbicidal action against ABUTH” value ([1]; dosage 80 g/ha) of the same molecule?
A: The value was 90%.

Q: What about the “Herbicidal action against PHBPU” value ([2]; dosage 5 g/ha) of the same molecule?
A: The value was 80%.

Q: And the “Herbicidal action against PHBPU” value ([2]; dosage 20 g/ha)?
A: The value was 80%.

Q: And the “Herbicidal action against PHBPU” value ([2]; dosage 80 g/ha)?
A: The value was 80%.

Q: What about the “Herbicidal action against VERPE” value ([3]; dosage 5 g/ha) of the same molecule?
A: The value was 40%.

Q: And the “Herbicidal action against VERPE” value ([3]; dosage 20 g/ha)?
A: Its value is 80%.

Q: What about the “Herbicidal action against VERPE” value ([3]; dosage 80 g/ha) of the same molecule?
A: Its value is 80%.

Q: What does the source list for `CCC(C)(CC)c1nnc(NC(=O)c2c(OC)cccc2OC)[nH]1` [Compound No. 118, N-[5-(1-ethyl-1-methylpropyl)-4H-1,2,4-triazol-3-yl]-2,6-dimethoxybenzamide]?
A: Herbicidal action against ABUTH ([1]; dosage 5 g/ha): 0%; Herbicidal action against ABUTH ([1]; dosage 20 g/ha): 0%; Herbicidal action against ABUTH ([1]; dosage 80 g/ha): 0%; Herbicidal action against PHBPU ([2]; dosage 5 g/ha): 0%; Herbicidal action against PHBPU ([2]; dosage 20 g/ha): 0%; Herbicidal action against PHBPU ([2]; dosage 80 g/ha): 0%; Herbicidal action against VERPE ([3]; dosage 5 g/ha): 0%; Herbicidal action against VERPE ([3]; dosage 20 g/ha): 0%; Herbicidal action against VERPE ([3]; dosage 80 g/ha): 0%

Q: `COc1cccc(OC)c1C(=O)Nc1nc[nH]n1` [Compound No. 119, N-(1H-1,2,4-triazol-3-yl)-2,6-dimethoxybenzamide] was tested. Which “Herbicidal action against ABUTH” value ([1]; dosage 5 g/ha) did it give?
A: The value was 0%.

Q: What about the “Herbicidal action against ABUTH” value ([1]; dosage 20 g/ha) of the same molecule?
A: Its value is 0%.

Q: And the “Herbicidal action against ABUTH” value ([1]; dosage 80 g/ha)?
A: The value was 0%.

Q: What about the “Herbicidal action against PHBPU” value ([2]; dosage 5 g/ha) of the same molecule?
A: Its value is 0%.

Q: And the “Herbicidal action against PHBPU” value ([2]; dosage 20 g/ha)?
A: Its value is 0%.

Q: And the “Herbicidal action against PHBPU” value ([2]; dosage 80 g/ha)?
A: Its value is 0%.

Q: What about the “Herbicidal action against VERPE” value ([3]; dosage 5 g/ha) of the same molecule?
A: The value was 0%.

Q: And the “Herbicidal action against VERPE” value ([3]; dosage 20 g/ha)?
A: Its value is 0%.

Q: And the “Herbicidal action against VERPE” value ([3]; dosage 80 g/ha)?
A: The value was 0%.
